Tested on: H1 human embryonic stem cells
Assay: Four-step differentiation with GDF-8, RT-PCR of pancreatic endoderm markers after step 4 (Example 19)
Assay type: cell-based
Settings: 100 ng/ml GDF-8 with Wnt3a or with 2.5 μM Compound 40
Procedure: The differentiation process was started three days after the cells were seeded into 6-well plates. A four-step protocol was used for the in vitro differentiation of H1 human embryonic stem cells to cells expressing markers characteristic of the pancreatic endoderm lineage. Step 1 was conducted over three days to generate cells expressing markers characteristic of the definitive endoderm lineage. On the first day of step 1, differentiation was initiated by aspirating spent culture medium and adding an equal volume of RPMI-1640 basal medium (Invitrogen; Cat #22400) with 2% Albumin Bovine Fraction V, Fatty Acid Free (FAF BSA) (Proliant Biologicals; Cat #SKU 68700) and 8 ng/ml bFGF. In one treatment group, duplicate sets of cells were treated with 100 ng/ml GDF-8 (R&D Systems; Cat #788-G8) and 20 ng/ml Wnt3a (R&D Systems; Cat #1324-WN/CF). In a second treatment group, duplicate sets of cells were treated with 100 ng/ml GDF-8 and 2.5 μM Compound 40. On the second and third day of step 1 differentiation, cells in all treatment groups were fed with RPMI-1640 containing 2% FAF BSA, 8 ng/ml bFGF and 100 ng/ml GDF-8 but without the addition of Wnt3a or Compound 40. […]
Step 4 of the differentiation protocol was carried out over three days. […] On the following day, cells in suspension culture were collected and counted. […]

With “GDF-8: growth factor GDF-8, also known as myostatin, member of the TGF-β family” the “markers characteristic of the pancreatic endoderm lineage at the conclusion of step 4 (RT-PCR)” value was “expressed equivalent levels of markers characteristic of the pancreatic endoderm lineage”.
For `C=CCN1CC(=O)NCCCc2cncc(c2)-c2ncnc(n2)Nc2cccc(c2)C1` [Compound 40, 14-Prop-2-en-1-yl-3,5,7,14,17,23,27-heptaazatetracyclo[19.3.1.1˜2.6˜0.1˜8,12˜]heptacosa-1(25), 2(27), 3,5,8(26), 9,11,21,23-nonaen-16-one], the “markers characteristic of the pancreatic endoderm lineage at the conclusion of step 4 (RT-PCR)” value was “expressed equivalent levels of markers characteristic of the pancreatic endoderm lineage”.
